The text below walks through data of patent US6900195B2, “Manzamines for treatment of drug resistant infection” (The University of Mississippi, priority 2000, dated 2005).

pEC50, pIC50: −log10 of the molar value. ≈ marks a conversion by molar mass, not a printed value.

For series [1], the system named is P. berghei. Nature of the series: In vivo antimalarial activity in P. berghei-infected mice. Set-up: species or system Plasmodium berghei. As for the experimental part: In Vivo Evaluation of Antimalarial Activity. (National University of Singapore by Dr. Kenny Ang, confirmation of activity at the WHO). Four-week-old, male Swiss albino mice are injected intraperitoneally with 10^7 P. berghei-infected mouse erythrocytes. On day 2 after infection, mice are treated with a single intraperitoneal injection of either the test compound or a reference drug (chloroquine or artemisinin) within a concentration range of 50 to 1,000 μmol/kg of body weight. All test compounds and reference drugs were injected as a suspension in 5% Tween 60 saline. For oral administration, the test compounds are given as a suspension in corn oil, and mice are given two consecutive doses of test compound at 100 μmol/kg on days 2 and 3 after infection. […] Control mice receive only 5% Tween 60 saline or corn oil. Survival of mice was recorded daily. Percent parasitemia is determined microscopically (magnification, ×1,000) from mouse-tail blood smears that were fixed with methanol and stained with Giemsa stain. Blood samples from individual P. berghei-infected mice were collected at various times after a single intraperitoneal treatment of 100 μmol/kg of manzamine A per kg on day 3 after infection. For transmission electron microscopy, approximately 0.5-ml blood samples are fixed with 3% glutaraldehyde in 0.1 M cacodylate buffer (pH 7.4), postfixed with 1% osmium tetroxide and 1% uranyl acetate, dehydrated in a graded ethanol series, and embedded in Spurr's resin. The resulting blocks are cut by using a Reichert-Jung Ultracut with a glass knife. Ultra thin sections were mounted on 150-mesh copper grids, stained with 1% uranyl acetate and 1% lead citrate, and examined with a JEM-100CX electron microscope. Manzamine in plasma was detected by liquid chromatography=selected reaction monitoring-mass spectrometry (LC-SRM-MS). P. berghei-infected mice will be treated with the alkaloid (100 μmol/kg intraperitoneally) on day 3 post infection. Blood samples are collected from individual mice at specific times up to 48 h posttreatment. Plasma was isolated by centrifugation and extracted with 95% acetonitrile containing 5 mM ammonium acetate. The plasma extract was filtered, and 5 μl samples are injected into a Shimadzu LC-10 AD microbore high-pressure liquid chromatograph interfaced with a Perkin-Elmer API 300 turbo-ion-spray tandem mass spectrometer. Samples are separated on a Prodigy C-18 column (30 by 1 mm, 5-μm inner diameter) by elution at 50 μl/min with 86% acetonitrile containing 5 mM ammonium acetate. Manzamine can be detected by monitoring the transition of the protonated manzamine precursor ion from the (M+H)^+ to the (M+H —H2O)^+. Peak areas for the product ion chromatograms are integrated, and concentrations are determined from a linear calibration curve for manzamine in spiked plasma. The limit of detection for the manzamines in plasma by LC-SRM-MS is 2.5 pg. Results are subjected to a nonparametric statistical assessment with a confidence interval of 99% (p<0.01) by using Analyse-it software linked to Microsoft Excel. The program uses the Mann-Whitney U test to determine significant differences between two groups of data.

Series [2] deals with P. falciparum D6 clone (Sierra Leone, chloroquine-sensitive). Nature of the series: In vitro antimalarial activity, parasite LDH assay, D6 clone. Type of series: cell-based, Plasmodium falciparum.
Series [3] deals with Vero cells. The series is described as follows: In vitro cytotoxicity to mammalian cells (neutral red).
For series [4], the system named is P. falciparum W2 clone (Indochina, chloroquine-resistant). Nature of the series: In vitro antimalarial activity, parasite LDH assay, W2 clone. Type of series: cell-based, Plasmodium falciparum.
The nature of series [5]: Cytotoxicity in human PBM cells. To be noted: human.
Series [6] relates to Plasmodium yoelii NS malaria strain. The series is described as follows: WHO Peters 4-day assay, Plasmodium yoelii NS in mice. Format: in vivo. The text has this: To confirm the activity of the manzamines against malaria the World Health Organization examined manzamine A against the Plasmodium yoelii NS malaria strain in mice (Peters 4-day assay-Handbook of Animal Models of Infection Chapter 92, Academic Press 1999).

In series [7] the test system is HIV-1 in human PBM cells. Nature of the series: Anti-HIV activity in human PBM cells. Conditions: Human immunodeficiency virus 1, PBMC. Format: cell-based.
In series [8] the test system is P. berghei. The series is described as follows: In vivo antimalarial activity in P. berghei-infected mice. To be noted: three 50 μmoles/kg i.p. doses. On the set-up: species or system Plasmodium berghei.
Series [9] relates to M. tuberculosis (H37Rv). The series is described as follows: microbe, parasite or virus in culture. Type of series: cell-based, Mycobacterium tuberculosis. Conditions: M. tuberculosis H37Rv.
For series [10], the system named is T. gondii (C56 strain). Nature of the series: Survival of mice infected orally with T. gondii cysts. Format: in vivo, Toxoplasma gondii. The text has this:
Toxoplasma gondii. […] Untreated infected mice in the control group started dying 10 days post infection. Mice treated with manzamine A died nine days after treatment stopped. […] FIGS. 1 and 2 provide the graphic results of this experiment. […] Treatment was begun on Day 1 following in infection and continued for 8 days.

On to `O[C@]12C=C(c3nccc4c3[nH]c3ccccc34)[C@@H]3CCN(CCCC/C=C\CC1)C[C@@]31C[C@@H]3/C=C\CCCCN3[C@@H]12` [Manzamine A], for which, in series [1] (P. berghei-infected mice, single i.p. 100 μmoles/kg, comparison 2 days after treatment), the “reduction of parasitemia” value is recorded as “comparable reduction of parasitemia”. The “reduction of parasitemia compared with control mice” value in series [1] (P. berghei-infected mice, two oral doses 100 μmoles/kg) turned out to be 90%. The “in vivo activity against P. berghei relative to chloroquine or artemisinin” value in series [1] (mice) was “in vivo activity against P. berghei greater than chloroquine or artemisinin”. Moreover, the IC50 in [2] (Plasmodium falciparum, D6, read-out: D6 Clone IC50) came out at 4.5 ng/mL (≈ 0.0082 µM); in [4] (Plasmodium falciparum, W2, read-out: W2 Clone IC50) it was 8 ng/mL (≈ 0.0146 µM). Further, the “Selectivity index (SI), D6 clone” value in series [2] (Vero TC50 relative to D6 IC50) is on record as “SI = 64”. In series [3], the “Cytotoxicity TC50” value worked out at 290 ng/mL. The “Selectivity index (SI), W2 clone” value in series [4] (Vero TC50 relative to W2 IC50) is “SI = 36”. The negative-log IC50 (pIC50) in series [5] is 5.29. The molecule also gave an ED50 in series [6] (Plasmodium yoelii, 96 h) of less than 5 mg/kg. For the same molecule, in [6] (given orally in DMSO or carboxy-methylcellulose-based formulation), the “activity relative to Na artesunate” value was “more active than Na artesunate”. For the same molecule, the negative-log EC50 (pEC50) in series [7] was 4.89. Moreover, the “outcome after three doses” value in series [8] was “curative and totally clears the parasite”. Also, the “% Inhibition” value in series [9] (test concentration not given) turned out to be 99%. Further, the MIC in series [9] (Mycobacterium tuberculosis, read-out: MIC) is 1560 ng/mL (≈ 2.84 µM). Also, in [10] (8 mg/kg i.p. once a day for 8 days), the “time of death after treatment stopped” value is given as “nine”. The “signs or behavior during treatment” value in series [10] (8 mg/kg i.p. once a day for 8 days (paralysis, blindness, twirling)) was “no uncommon signs or behavior”. Moreover, the “survival at day 16 of infection” value in series [10] (8 mg/kg i.p. once a day for 8 days, all control mice had died by day 16) is on record as “all the manzamine A treated mice were alive”. For the same molecule, the “time to death” value in series [10] (SW mice, 10 cysts C56 orally, 8 mg/kg i.p. once a day for 8 days from day 1) is listed as “significant prolongation of time to death”.

As usually defined, the IC50 is the point on the concentration scale where inhibition reaches its midpoint. Broadly, the pIC50 is the IC50 on a negative log10 scale, so that one unit is a factor of ten. Read a high pIC50 as a small IC50. For orientation: ED50 means the dose at which the effect has come halfway, by size or by number of responders. Lower therefore signals greater potency. For orientation: pEC50 means the negative decadic logarithm of the EC50, by convention in mol/L. A low value points to a high EC50. The % Inhibition is the drop in the measured response relative to a control, in per cent.
